Results published in US8871753B2, “Macrocyclic compounds and their use as kinase inhibitors” (Incyte Corporation, priority 2008, dated 2014).
Where a name gives a salt, the structure may show the parent alone. Read-outs that look alike come from different tables or passages of the source.

Experiments:
Type in all cases: biochemical
[1] = target: T1, human JAK3 (a.a. 781-1124) (Homo sapiens, UniProt P52333); assay: In vitro JAK kinase assay (HTRF, phosphorylation of a biotinylated peptide), JAK3
T1 construct: JAK3 (a.a. 781-1124); His tag (N); made in house; host or cells: insect cells (baculovirus)
How it was run: (§1)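 Phosphorylation of a biotinylated peptide by the JAK kinase domain, detected by HTRF with Eu-Py20 and SA-APC. ATP was 90 μM for JAK1, 30 μM for JAK2 and 3 μM for JAK3. Reactions ran 1 h at room temperature and were stopped with EDTA, followed by 40 min antibody binding.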

[2] = target: T2, human JAK1 (a.a. 837-1142) (Homo sapiens, UniProt P23458); assay: In vitro JAK kinase assay (HTRF, phosphorylation of a biotinylated peptide), JAK1; details: read-out: JAK1 IC50
T2 construct: human JAK1 (a.a. 837-1142); His tag (N); made in house; host or cells: insect cells (baculovirus)
How it was run: as §1

[3] = target: TYK2 (Homo sapiens, UniProt P29597); assay: TYK2 kinase inhibition (Table A1)
[4] = target: T3, human JAK2 (a.a. 828-1132) (Homo sapiens, UniProt O60674); assay: In vitro JAK kinase assay (HTRF, phosphorylation of a biotinylated peptide), JAK2
T3 construct: JAK2 (a.a. 828-1132); His tag (N); made in house; host or cells: insect cells (baculovirus)
How it was run: as §1

Chain of TYK2 (P29597 whole entry): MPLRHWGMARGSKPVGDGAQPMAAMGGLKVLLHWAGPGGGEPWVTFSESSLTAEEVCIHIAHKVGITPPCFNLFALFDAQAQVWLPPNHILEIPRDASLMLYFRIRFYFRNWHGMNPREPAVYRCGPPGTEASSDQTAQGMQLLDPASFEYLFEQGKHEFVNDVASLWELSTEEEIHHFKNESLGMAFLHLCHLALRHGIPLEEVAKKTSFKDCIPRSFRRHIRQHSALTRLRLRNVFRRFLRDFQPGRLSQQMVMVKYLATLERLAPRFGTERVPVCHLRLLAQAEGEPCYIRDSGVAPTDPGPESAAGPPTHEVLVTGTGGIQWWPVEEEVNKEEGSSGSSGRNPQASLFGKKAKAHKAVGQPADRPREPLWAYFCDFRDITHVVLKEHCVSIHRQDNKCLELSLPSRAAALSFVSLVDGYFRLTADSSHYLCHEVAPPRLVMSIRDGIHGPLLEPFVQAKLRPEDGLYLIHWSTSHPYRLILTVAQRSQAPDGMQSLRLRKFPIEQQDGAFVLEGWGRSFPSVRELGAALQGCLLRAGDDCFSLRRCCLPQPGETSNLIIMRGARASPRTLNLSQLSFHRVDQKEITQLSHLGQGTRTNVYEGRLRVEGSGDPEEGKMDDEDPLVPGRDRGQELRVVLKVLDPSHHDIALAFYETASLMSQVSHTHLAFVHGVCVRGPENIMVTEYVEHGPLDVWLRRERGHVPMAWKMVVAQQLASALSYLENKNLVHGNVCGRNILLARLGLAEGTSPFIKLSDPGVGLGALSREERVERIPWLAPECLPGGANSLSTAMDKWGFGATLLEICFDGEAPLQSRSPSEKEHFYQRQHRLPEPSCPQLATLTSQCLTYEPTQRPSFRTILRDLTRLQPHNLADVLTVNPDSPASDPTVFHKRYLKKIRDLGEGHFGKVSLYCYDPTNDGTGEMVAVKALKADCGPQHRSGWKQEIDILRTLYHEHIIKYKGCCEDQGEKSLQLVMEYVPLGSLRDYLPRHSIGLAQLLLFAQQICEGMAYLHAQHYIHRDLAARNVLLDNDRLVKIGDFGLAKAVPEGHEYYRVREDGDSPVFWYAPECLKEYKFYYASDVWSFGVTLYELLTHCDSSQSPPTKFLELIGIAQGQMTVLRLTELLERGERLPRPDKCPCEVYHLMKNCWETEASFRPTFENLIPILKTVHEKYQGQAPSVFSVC
T3 sequence (O60674 828-1132): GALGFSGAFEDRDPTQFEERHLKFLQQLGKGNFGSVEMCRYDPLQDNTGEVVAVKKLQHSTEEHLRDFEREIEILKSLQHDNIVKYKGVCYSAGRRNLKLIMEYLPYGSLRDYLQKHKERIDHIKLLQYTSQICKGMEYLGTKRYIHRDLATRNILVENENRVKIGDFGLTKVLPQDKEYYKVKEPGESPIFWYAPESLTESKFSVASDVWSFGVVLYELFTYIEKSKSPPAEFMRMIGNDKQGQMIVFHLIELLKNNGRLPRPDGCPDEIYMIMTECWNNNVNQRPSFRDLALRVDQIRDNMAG
T2 sequence (P23458 849-1154): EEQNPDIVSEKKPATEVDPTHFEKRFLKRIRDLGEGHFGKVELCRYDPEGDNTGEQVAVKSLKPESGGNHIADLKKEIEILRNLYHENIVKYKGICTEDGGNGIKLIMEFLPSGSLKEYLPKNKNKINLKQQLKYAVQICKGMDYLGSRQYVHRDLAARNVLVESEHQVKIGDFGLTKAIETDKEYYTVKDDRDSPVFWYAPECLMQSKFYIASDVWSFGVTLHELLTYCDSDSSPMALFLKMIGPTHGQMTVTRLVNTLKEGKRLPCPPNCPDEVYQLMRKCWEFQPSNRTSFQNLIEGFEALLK
T1 sequence (P52333 781-1124): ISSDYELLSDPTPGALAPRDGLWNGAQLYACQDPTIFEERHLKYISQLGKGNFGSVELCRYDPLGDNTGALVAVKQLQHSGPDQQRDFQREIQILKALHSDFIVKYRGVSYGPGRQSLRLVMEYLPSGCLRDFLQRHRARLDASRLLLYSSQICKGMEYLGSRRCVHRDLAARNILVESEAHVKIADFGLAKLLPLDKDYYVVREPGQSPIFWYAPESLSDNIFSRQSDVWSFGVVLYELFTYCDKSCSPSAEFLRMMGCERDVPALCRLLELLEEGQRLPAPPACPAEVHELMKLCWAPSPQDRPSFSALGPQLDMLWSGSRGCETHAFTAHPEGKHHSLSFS

| SMILES | IC50 ([1]; Table D1) [nM] | IC50 ([2]; Table D1) [nM] | IC50 ([3]; Table D1) [nM] | IC50 ([4]; Table D1) [nM] | further results |
| --- | --- | --- | --- | --- | --- |
| CCCC(=O)N1Cc2cccc(c2)Nc2ncc(Cl)c(n2)Nc2cccc1c2 [Example C26, 14-Butyryl-6-chloro-2,4,8,14,22-pentaazatetracyclo[14.3.1.1(3,7).1(9,13)]docosa-1(20),3(22),4,6,9(21),10,12,16,18-nonaene] | – | – | – | – | IC50 [1]: > 10000 nM; IC50 [2]: 228 nM; IC50 [3]: 1420 nM; IC50 [4]: 357 nM |
| O=C(CC1CN(c2nc3ccccc3s2)C1)Nc1ccc2cc1CCc1cncc(c1)Nc1ncc(Cl)c(n1)N2 [Example D138, 2-[1-(1,3-Benzothiazol-2-yl)azetidin-3-yl]-N-[6-chloro-2,4,8,18,22-pentaazatetracyclo[14.3.1.1(3,7).1(9,13)]docosa-1(20),3(22),4,6,9(21),10,12,16,18-nonaen-12-yl]acetamide tris(trifluoroacetate)] | > 1000 | 12 | 500 | 96 | – |
| COc1ccc2cc1Nc1nc(ncc1Cl)Nc1cccc(c1)CC2 [Example A25, 6-Chloro-10-methoxy-2,4,8,22-tetraazatetracyclo[14.3.1.1(3,7).1(9,13)]docosa-1(20),3(22),4,6,9(21),10,12,16,18-nonaene trifluoroacetate] | – | – | – | – | IC50 ([1]; method AA1 (3 μM ATP) or AA2 (1000 μM ATP), not stated per value): 14 nM; IC50 ([2]; method AA1 (90 μM ATP) or AA2 (1000 μM ATP), not stated per value): 38 nM; IC50 [3]: 122 nM; IC50 ([4]; method AA1 (30 μM ATP) or AA2 (1000 μM ATP), not stated per value): 21 nM |
| O=C(c1cccnc1)N1Cc2cccc(c2)Nc2ncc(Cl)c(n2)Nc2cccc1c2 [Example C27, 6-Chloro-14-(pyridin-3-ylcarbonyl)-2,4,8,14,22-pentaazatetracyclo[14.3.1.1(3,7).1(9,13)]docosa-1(20),3(22),4,6,9(21),10,12,16,18-nonaene] | – | – | – | – | IC50 [1]: 1290 nM; IC50 [2]: 43 nM; IC50 [3]: 501 nM; IC50 [4]: 59 nM |
| O=C(C[C@H]1CCN(c2nc3ccccc3s2)C1)Nc1ccc2cc1CCc1cncc(c1)Nc1ncc(Cl)c(n1)N2 [Example D136, 2-[(3R)-1-(1,3-Benzothiazol-2-yl)pyrrolidin-3-yl]-N-[6-chloro-2,4,8,18,22-pentaazatetracyclo[14.3.1.1(3,7).1(9,13)]docosa-1(20),3(22),4,6,9(21),10,12,16,18-nonaen-12-yl]acetamide tris(trifluoroacetate)] | > 1000 | 6.6 | 106 | 53 | – |
| Cc1cc(CC(=O)Nc2ccc3cc2CCc2cccc(c2)Nc2ncc(Cl)c(n2)N3)on1 [Example C30, N-[6-Chloro-2,4,8,22-tetraazatetracyclo[14.3.1.1(3,7).1(9,13)]docosa-1(20),3(22),4,6,9(21),10,12,16,18-nonaen-12-yl]-2-(3-methylisoxazol-5-yl)acetamide trifluoroacetate] | – | – | – | – | IC50 [1]: 990 nM; IC50 [2]: 31 nM; IC50 [3]: 136 nM; IC50 [4]: 56 nM |
| O=C(C[C@H]1CCN(c2nc3cccnc3o2)C1)Nc1ccc2cc1CCc1cncc(c1)Nc1ncc(Cl)c(n1)N2 [Example D139, N-[6-Chloro-2,4,8,18,22-pentaazatetracyclo[14.3.1.1(3,7).1(9,13)]docosa-1(20),3(22),4,6,9(21),10,12,16,18-nonaen-12-yl]-2-[(3R)-1-[1,3]oxazolo[5,4-b]pyridin-2-ylpyrrolidin-3-yl]acetamide tris(trifluoroacetate)] | > 1000 | 12 | 282 | 159 | – |
| O=C(NCc1ccco1)Nc1ccc2cc1CCc1cncc(c1)Nc1ncc(Cl)c(n1)N2 [Example B134, N-[6-Chloro-2,4,8,18,22-pentaazatetracyclo[14.3.1.1(3,7).1(9,13)]docosa-1(20),3(22),4,6,9(21),10,12,16,18-nonaen-12-yl]-N′-(2-furylmethyl)urea bis(trifluoroacetate)] | – | – | – | – | IC50 ([1]; Table B1): 23 nM; IC50 ([2]; Table B1): 0.75 nM; IC50 ([3]; Table B1): 2.8 nM; IC50 ([4]; Table B1): 1.7 nM |
| O=C(CC1CCN(c2nncs2)C1)Nc1ccc2cc1CCc1cncc(c1)Nc1ncc(Cl)c(n1)N2 (stereo not shown) [Example D155, N-[6-Chloro-2,4,8,18,22-pentaazatetracyclo[14.3.1.1(3,7).1(9,13)]docosa-1(20),3(22),4,6,9(21),10,12,16,18-nonaen-12-yl]-2-[1-(1,3,4-thiadiazol-2-yl)pyrrolidin-3-yl]acetamide tris(trifluoroacetate)] | > 400 | 29 | > 400 | 120 | – |

Now from value to molecule, other results behind:

| IC50 ([1]; Table D1) [nM] | IC50 ([2]; Table D1) [nM] | IC50 ([3]; Table D1) [nM] | IC50 ([4]; Table D1) [nM] | SMILES | further results |
| --- | --- | --- | --- | --- | --- |
| > 400 | 20 | 59 | 70 | O=S(=O)(c1ccccc1F)N1CCC(CCNc2ccc3cc2CCc2cncc(c2)Nc2ncc(Cl)c(n2)N3)CC1 [Example D221, 6-Chloro-N-(2-{1-[(2-fluorophenyl)sulfonyl]piperidin-4-yl}ethyl)-2,4,8,18,22-pentaazatetracyclo[14.3.1.1(3,7).1(9,13)]docosa-1(20),3(22),4,6,9(21),10,12,16,18-nonaen-12-amine tris(trifluoroacetate)] | – |
| > 400 | 57 | > 400 | 244 | O=C(Nc1cccs1)N1CCC(CCOc2ccc3cc2CCc2cncc(c2)Nc2ncc(Cl)c(n2)N3)CC1 [Example D167, 4-(2-{[6-Chloro-2,4,8,18,22-pentaazatetracyclo[14.3.1.1(3,7).1(9,13)]docosa-1(20),3(22),4,6,9(21),10,12,16,18-nonaen-12-yl]oxy}ethyl)-N-2-thienylpiperidine-1-carboxamide bis(trifluoroacetate)] | – |
| 31 | 24 | 40 | 6.6 | CC(=O)N1CCN(c2ccc3cc2CCc2cccc(c2)Nc2ncc(Cl)c(n2)N3)CC1 [Example D85, 12-(4-Acetylpiperazin-1-yl)-6-chloro-2,4,8,22-tetraazatetracyclo[14.3.1.1(3,7).1(9,13)]docosa-1(20),3(22),4,6,9(21),10,12,16,18-nonaene bis(trifluoroacetate)] | – |
| > 400 | 130 | > 400 | > 400 | Cc1csc(NC(=O)N2CCC(CCOc3ccc4cc3CCc3cncc(c3)Nc3ncc(Cl)c(n3)N4)CC2)c1 [Example D172, 4-(2-{[6-Chloro-2,4,8,18,22-pentaazatetracyclo[14.3.1.1(3,7).1(9,13)]docosa-1(20),3(22),4,6,9(21),10,12,16,18-nonaen-12-yl]oxy}ethyl)-N-(4-methyl-2-thienyl)piperidine-1-carboxamide bis(trifluoroacetate)] | – |
| > 400 | 180 | > 400 | > 400 | Clc1cnc2nc1Nc1ccc(OCC3CCNCC3)c(c1)CCc1cncc(c1)N2 [Example D225, 6-Chloro-12-(piperidin-4-ylmethoxy)-2,4,8,18,22-pentaazatetracyclo[14.3.1.1(3,7).1(9,13)]docosa-1(20),3(22),4,6,9(21),10,12,16,18-nonaene tris(trifluoroacetate)] | – |
| 196 | 108 | 742 | 49 | O=C(Cn1c(=O)oc2c3cc(cc21)Nc1nc(ncc1Cl)Nc1cccc(c1)CC3)Nc1ccccc1 [Example D185, 2-[4-Chloro-19-oxo-18-oxa-2,6,8,20,25-pentaazapentacyclo[14.6.1.1(3,7).1(9,13).0(17,21)]pentacosa-1(23),3(25),4,6,9(24),10,12,16,21-nonaen-20-yl]-N-phenylacetamide trifluoroacetate] | – |
| > 400 | 24 | 217 | 29 | O=C(CC1CCN(c2ccccn2)C1)Nc1ccc2cc1CCc1cncc(c1)Nc1ncc(Cl)c(n1)N2 (stereo not shown) [Example D156, N-[6-Chloro-2,4,8,18,22-pentaazatetracyclo[14.3.1.1(3,7).1(9,13)]docosa-1(20),3(22),4,6,9(21),10,12,16,18-nonaen-12-yl]-2-(1-pyridin-2-ylpyrrolidin-3-yl)acetamide tris(trifluoroacetate)] | – |
| 34 | 18 | 30 | 3.3 | NC(=O)N1CCN(c2ccc3cc2CCc2cccc(c2)Nc2ncc(Cl)c(n2)N3)CC1 [Example D87, 4-[6-Chloro-2,4,8,22-tetraazatetracyclo[14.3.1.1(3,7).1(9,13)]docosa-1(20),3(22),4,6,9(21),10,12,16,18-nonaen-12-yl]piperazine-1-carboxamide bis(trifluoroacetate)] | – |
| 85 | 32 | 70 | 13 | O=C(C[C@H]1CCCN(C(=O)c2ccccc2)C1)Nc1ccc2cc1CCc1cccc(c1)Nc1ncc(Cl)c(n1)N2 [Example D203, 2-[(3R)-1-Benzoylpiperidin-3-yl]-N-[6-chloro-2,4,8,22-tetraazatetracyclo[14.3.1.1(3,7).1(9,13)]docosa-1(20),3(22),4,6,9(21),10,12,16,18-nonaen-12-yl]acetamide trifluoroacetate] | – |
| > 400 | 117 | > 400 | 244 | Cc1noc(C)c1NC(=O)N1CCC(CCOc2ccc3cc2CCc2cncc(c2)Nc2ncc(Cl)c(n2)N3)CC1 [Example D171, 4-(2-{[6-Chloro-2,4,8,18,22-pentaazatetracyclo[14.3.1.1(3,7).1(9,13)]docosa-1(20),3(22),4,6,9(21),10,12,16,18-nonaen-12-yl]oxy}ethyl)-N-(3,5-dimethylisoxazol-4-yl)piperidine-1-carboxamide bis(trifluoroacetate)] | – |
